The chains are these.
B1: CAT_GEO: wild type CAT, type A, Geomicrobium sp. (protein, listed as Geomicrobium sp.)
chain: MTFNPITLENWERKEYFNHYLNQQTTFSMTTDIEISSFKAAIKRKGYKFYPTFIYMVTEVINANESFRISFNEEGKLGYWEKLIPLYTVFDDQKQSFSNLWTDSTGNVLTFQEDYDRDVAEYNHIGGLFPKTPIPANTFPISMIPWNSFSGFNLNVGNGGNFLLPIITAGKYYSKGTATYLPVSLQVHHAVCDGYHAASFMNQLQELANTTNEWL
modifications: SITE (1)..(215) CAT_GEO, Type A
B2: CATec3 F97W Y20F: CATec3 with Y20F mutation in combination with F97W (protein, UniProt P00484 1-213, looked up, variant Y20F F97W)
Chloramphenicol …: MNYTKFDVKNWVRREHFEFFRHRLPCGFSLTSKIDITTLKKSLDDSAYKFYPVMIYLIAQAVNQFDELRMAIKDDELIVWDSVDPQFTVFHQETETWSALSCPYSSDIDQFMVNYLSVMERYKSDTKLFPQGVTPENHLNISALPWVNFDSFNLNVANFTDYFAPIITMAKYQQEGDRLLLPLSVQVHHAVCDGFHVARFINRLQELCNSKLK
B3: CATec3 F97W: comparative CATec3 with F97W mutation (protein, UniProt P00484 1-213, looked up, variant F97W)
Chloramphenicol …: MNYTKFDVKNWVRREHFEFYRHRLPCGFSLTSKIDITTLKKSLDDSAYKFYPVMIYLIAQAVNQFDELRMAIKDDELIVWDSVDPQFTVFHQETETWSALSCPYSSDIDQFMVNYLSVMERYKSDTKLFPQGVTPENHLNISALPWVNFDSFNLNVANFTDYFAPIITMAKYQQEGDRLLLPLSVQVHHAVCDGFHVARFINRLQELCNSKLK
B4: CATec3: wild type CAT, type A, Escherichia coli; expressed in strain HSCT2107 (protein, listed as Escherichia coli)
chain: MNYTKFDVKNWVRREHFEFYRHRLPCGFSLTSKIDITTLKKSLDDSAYKFYPVMIYLIAQAVNQFDELRMAIKDDELIVWDSVDPQFTVFHQETETFSALSCPYSSDIDQFMVNYLSVMERYKSDTKLFPQGVTPENHLNISALPWVNFDSFNLNVANFTDYFAPIITMAKYQQEGDRLLLPLSVQVHHAVCDGFHVARFINRLQELCNSKLK
modifications: SITE (1)..(213) CAT3_ECOLX, Type A
notes: wild type CAT, type A, Escherichia coli; expressed in strain HSCT2107

System in the first data set: not listed separately
Nature of the data set: Melting temperature (Tm) of purified His-tagged CATs. The format is physicochemical. The note with it: purified CAT.
Protocol: To determine in vitro melting temperatures and catalytic efficiencies, His-tagged CATs were purified and characterized using know methods. In the 5,5′-dithiobis-2-nitrobenzoic acid (DTNB) assay, final enzyme concentrations of 0.05-0.1 μg/mL and 5-10 μg/mL were used for the reactions with chloramphenicol and alcohols, respectively. […] The enzyme reactions were held at 50° C. in a BioTek microplate reader for at least 30 minutes with measurements every one minute. The kinetic parameters were calculated using a non-linear regression method known to one of skill in the art.
Take B1: the “melting temperature (Tm)” value was 43.5 °C. Still for that read-out and setting: under B2 stands 85.5 °C; under B3, 81.2 °C; under B4, 80.2 °C.

The next data set addresses CATec3 Y20F (Escherichia coli, UniProt P00484, Y20F).
Assay: not given
The format is biochemical.
Details: not given
On to Butanol, for which the turnover number (kcat) – broadly, the maximal rate divided by the concentration of active sites – was 1.9 ± 0.4 s⁻¹.

Still in this data set, the particulars now being: CATec3 Y20F, 50° C., 2 mM acetyl-CoA; average±standard deviation.
Regarding `OCCc1ccccc1` [Phenylethyl alcohol], the Km (in general, the substrate concentration at which the rate is half of its maximum) was found to be 10.6 ± 0.4 mM and the kcat was 6.1 ± 0.1 s⁻¹.

In the case of `CC(C)=CCCC(C)CCO` (centres unmarked) [Citronellol], the Km is 3.2 ± 0.3 mM and the turnover number (kcat) was determined as 7.7 ± 0.2 s⁻¹. For `CC(C)=CCC/C(C)=C/CO` [Geraniol], in that order: 4.1 ± 0.4 mM and 8.0 ± 0.2 s⁻¹. In the case of `CCCCCO` [Pentanol], the Michaelis-Menten constant (Km) was found to be 64.7 ± 33.6 mM and the kcat stood at 3.9 ± 1.0 s⁻¹. Turning to `OCc1ccco1` [Furfuryl alcohol], the Michaelis constant (Km) turned out to be 37.1 ± 9.8 mM and the kcat came out at 1.1 ± 0.1 s⁻¹.

Take `COc1cccc(CO)c1` [3-Methoxybenzyl alcohol]: the Km was found to be 10 ± 1.2 mM and the kcat came to 18.8 ± 0.9 s⁻¹.

As for `CC(C)CCO` [Isoamyl alcohol], the Km was determined as 59.9 ± 26.6 mM and the kcat amounted to 2.8 ± 0.3 s⁻¹.

As to `CCO` [Ethanol], the kcat came to 0.8 ± 1.0 s⁻¹. Same read-out and setting: under `CC(C)=CCO` [Prenol] stands 2.7 ± 0.3 s⁻¹; under `CC(C)CO` [Isobutanol], 2.3 ± 0.1 s⁻¹. Turning to `O=C(N[C@H](CO)[C@H](O)c1ccc([N+](=O)[O-])cc1)C(Cl)Cl` [Chloramphenicol], the Michaelis constant (Km) is 0.2 ± 0.05 mM and the kcat was 105.5 ± 6.9 s⁻¹. Take `CC/C=C\CCO` [3-cis-Hexen-1-ol]: the catalytic constant (kcat) is 2.3 ± 0.2 s⁻¹.

For `OCc1ccccc1` [Benzyl alcohol], the Km came out at 12.2 ± 1.6 mM and the kcat came out at 1.6 ± 0.1 s⁻¹. The like results for `CCCCCCO` [Hexanol] were, in that order, 29.2 ± 4 mM and 6.4 ± 0.4 s⁻¹. For `CC(C)=CCC/C(C)=C\CO` [Nerol], in that order: 4.1 ± 0.8 mM and 2.2 ± 0.04 s⁻¹.

The same data set, now with this note: CATec3 Y20F, 50° C., 2 mM acetyl-CoA; average±standard deviation; read-out: KM.
Turning to `CC/C=C\CCO` [3-cis-Hexen-1-ol], the Michaelis constant (Km) is 6.4 ± 2.2 mM.

For the origin of these results see patent publication US20220136016A1, “MODIFIED CHLORAMPHENICOL […] AND BIOSYNTHESIS METHOD OF MAKING ESTERS USING SAME” (UNIVERSITY OF TENNESSEE RESEARCH FOUNDATION, priority 2020, published 2022).
